Experimental data taken from patent publication US20260325511A1, “METHODS OF USE OF A LIPOSOMAL COMPOSITION COMPRISING AN ATR INHIBITOR” (Jazz Pharmaceuticals Therapeutics, Inc., priority 2023, published 2026).

Assays:
Type in all cases: in vivo, mouse
CRC Colo205 [1] = test: Tumor efficacy study of liposomal ATR inhibitors + irinotecan, CRC Colo205 model (Example 3)
Procedure: Tumor efficacy studies were used to compare the efficacy of ATR inhibitors (Compounds A and C) in liposomal formulations in combination with irinotecan against irinotecan as a single agent in CRC Colo205 model.
(§1) Subcutaneous tumor models were initiated on 6-8 week old, female athymic nude mice. A cell suspension containing 5e6/100 μL CRC Colo205 cells in 1:1 PBS: Matrigel was subcutaneously injected into the hind flank of […] mice. Tumors were measured three times a week by digital caliper and reported as volume, calculated as V=π×1×w∧2 wherein 1 and w denote the longest and shortest tumor diameter respectively. Engrafted mice were then randomized into cohorts for treatment at an average tumor size of 80 mm^3.
Mice were organized into appropriate groups consisting of control (empty vehicle) and treatment groups including free irinotecan, irinotecan in combination with liposomal Compound A or liposomal Compound C, or irinotecan and berzosertib. Mice were administered free drug orally, and injected intravenously for liposomal compounds, with the required volume of sample to administer the prescribed dose to the animals based on individual mouse weights on dosing days. Animals were weighed and monitored for survival and in-life observations were collected at the time of weight measurement. Mice were monitored individually to endpoint which was either an individual tumor weight of 2000 mm^3 or other defined risk factors, whichever came first.
Animal study groups are disclosed in Table 2 (n=8 per group). Irinotecan was administered at 50 mg/kg via IP in a liposomal-free composition, once a week. Liposomal ATR inhibitors were administered at either 20 mg/kg (Group7) or 40 mg/kg (Groups 3, 5, 6, 8-10) via IV every other day. Berzosertib, clinical benchmark, was administered 5 consecutive days with 2 days off schedule. Last dose of any therapeutically active agent was administered on day 33.
Table 3 summarizes the tumor growth inhibition (TGI %) compared to the vehicle (Group 2) and tumor growth dynamic (TGD) compared to irinotecan single agent ([…]).

CRC Colo205 [2] = test: Dosing schedule study, once a week, efficacy similar to Example 3 (Example 4A); conditions: vs vehicle; day 28 from inoculation (day 14 from start of dosing); irinotecan 50 mg/kg IP
CRC Colo205 [3] = test: Dosing schedule study, efficacy similar to Example 3 (Example 4B); design: dose or concentration left out as unconfirmed; conditions: vs vehicle; day 44 from inoculation (day 12 from start of measurements)
Procedure: as §1
(§2) Mice were organized into appropriate groups consisting of control (empty vehicle) and treatment groups including free irinotecan, irinotecan in combination with liposomal Compound A or liposomal Compound C, or irinotecan and berzosertib. […] Animals were weighed and monitored for survival and in-life observations were collected at the time of weight measurement. Mice were monitored individually to endpoint which was either an individual tumor weight of 2000 mm^3 or other defined risk factors, whichever came first.
Efficacy study similar to those described in Example 3 were also repeated where liposomal ATR inhibitors (Compounds A, C, or berzosertib) were dosed once a week or three times a week. Animal study groups are disclosed in Table 5B (n=8 per group). […]

[4] = system: colorectal carcinoma (CRC) model (Colo205); test: Efficacy in colorectal cancer model Colo205 (Example 5); conditions: Lipo-G Comp. A 10-40 mg/kg IV QW or irinotecan 50 mg/kg IP QW
Procedure: as §1, §2
An efficacy study similar to those described in Example 3 above, was repeated where liposomal ATR inhibitors (Compounds A) were dosed once a week in a colorectal carcinoma (CRC) model (Colo205). Animal study groups are disclosed in Table 7 (n=8 per group)

[5] = system: non-small-cell lung cancer model (CTG-0828 PDX); test: Efficacy in NSCLC model CTG-0828 PDX (Example 7)
Procedure: An efficacy study similar to those described in Example 3 above, was repeated where liposomal ATR inhibitor (Compounds A) and/or irinotecan were dosed at 50 mg/kg once a week in a non-small-cell lung cancer model (CTG-0828 PDX) for 5 weeks (QWx5) and compared to combinations of liposomal ATR inhibitor (Compounds A) and irinotecan. Animal study groups are disclosed in Table 10 (n=8 per group).

[6] = irinotecan 50 mg/kg IP QW (reference)

Question: Which “TGI % (vs. vehicle) d 20” value (CRC Colo205 [1]; day 20, irinotecan 50 mg/kg IP QW) does the source give for `CCc1c2c(nc3ccc(OC(=O)N4CCC(N5CCCCC5)CC4)cc13)-c1cc3c(c(=O)n1C2)COC(=O)[C@]3(O)CC` [Irinotecan, irinotecan] here?
Answer: Its value is 67%.

Question: And the “TGI % (vs. vehicle) d 27” value (CRC Colo205 [1]; day 27, irinotecan 50 mg/kg IP QW)?
Answer: The value was 74%.

Question: And the “CR % (complete response)” value (CRC Colo205 [1]; irinotecan 50 mg/kg IP QW)?
Answer: Its value is 0%.

Question: And the “ORR % (objective response rate)” value (CRC Colo205 [1]; irinotecan 50 mg/kg IP QW)?
Answer: The value was 0%.

Question: What about the “TGD (vs. single agent) %” value (CRC Colo205 [1]; [6]) of the same molecule?
Answer: The value was 0%.

Question: And the “TGD (vs. single agent) Index” value (CRC Colo205 [1]; [6])?
Answer: The value was 1.0.

Question: What about the “PR# (partial response), number of mice” value (CRC Colo205 [1]; irinotecan 50 mg/kg IP QW, n=8) of the same molecule?
Answer: Its value is 0 mice.

Question: And the “Total R (response), number of mice” value (CRC Colo205 [1]; irinotecan 50 mg/kg IP QW, n=8)?
Answer: The value was 0 mice.

Question: What about the “TGI % d 28 (d 14)” value (CRC Colo205 [2]) of the same molecule?
Answer: Its value is 55.4%.

Question: And the “TGI % D 44(d 12)” value (CRC Colo205 [3])?
Answer: Its value is 0%.

Question: What about the “activity as single agent” value [4] of the same molecule?
Answer: Its value is “no/limited activity”.

Question: And the “CR tumor regression rate” value ([5]; 50 mg/kg QWx5)?
Answer: Its value is 0%.

Question: What about the “Tumor Growth Delay Index (TGDI)” value ([5]; 50 mg/kg QWx5) of the same molecule?
Answer: The value was 4.4.

Question: What about the “survival: median time to reach and exceed a tumor burden of 1 cm” value ([5]; 50 mg/kg QWx5, statistically significant improvement) of the same molecule?
Answer: The value was 100 days.

Question: And the “Max % Tumor Grown Inhibition (TGI)” value ([5]; 50 mg/kg each agent, QWx5)?
Answer: Its value is 91%.

Question: What about the “Regression * (% max)” value ([5]; 50 mg/kg each agent, QWx5) of the same molecule?
Answer: Its value is 60%.

Question: What about the “TGDI (vs. vehicle)” value ([5]; 50 mg/kg each agent, QWx5) of the same molecule?
Answer: Its value is 4.4.
